Data from publication PMC10860182 (ACS Medicinal Chemistry Letters, 2024).
Where two headings read alike, the source gives them in different places.

Tests used:
human 5-HT2A = human 5-HT2A (Homo sapiens, UniProt P28223); conditions: for 5-HT2A % Max: % 5-HT Max, human 5-HT2A-CHO cells; for higher agonist potency for 5-HT2B and 5-HT2C relative to 5-HT2A: compared with 5-HT2A potency
human 5-HT2B = human 5-HT2B (Homo sapiens, UniProt P41595); conditions: % 5-HT Max, human 5-HT2B-HEK293 cells
human 5-HT2C = human 5-HT2C (Homo sapiens, UniProt P28335); conditions: % 5-HT Max, human 5-HT2C-CHO cells
[1] = predicted hepatic clearance, human hepatic microsomes
5-HT2B = conditions: read-out: 5-HT2B EC50; previously described, patent application ref 20; cited from earlier work
[2] = predicted hepatic clearance, rat
P-gp [3] = molecular target: T1, P-gp (Homo sapiens, UniProt P08183); conditions: MDCK-MDR1 cells, 5 µM
[4] = rat PK cassette, iv, 0.2 mg/kg
in vivo = conditions: male, Sprague Dawley, rat, iv, 0.2 mg/kg
in vitro [5] = conditions: human, plasma, pH 7.4
in vitro [6] = conditions: rat, plasma, pH 7.4
in vitro [7] = conditions: mouse, plasma, pH 7.4
P-gp [8] = molecular target: T1, P-gp; assay: in vitro; conditions: MDCK-MDR1

Sequence of human 5-HT2C (P28335 33-458): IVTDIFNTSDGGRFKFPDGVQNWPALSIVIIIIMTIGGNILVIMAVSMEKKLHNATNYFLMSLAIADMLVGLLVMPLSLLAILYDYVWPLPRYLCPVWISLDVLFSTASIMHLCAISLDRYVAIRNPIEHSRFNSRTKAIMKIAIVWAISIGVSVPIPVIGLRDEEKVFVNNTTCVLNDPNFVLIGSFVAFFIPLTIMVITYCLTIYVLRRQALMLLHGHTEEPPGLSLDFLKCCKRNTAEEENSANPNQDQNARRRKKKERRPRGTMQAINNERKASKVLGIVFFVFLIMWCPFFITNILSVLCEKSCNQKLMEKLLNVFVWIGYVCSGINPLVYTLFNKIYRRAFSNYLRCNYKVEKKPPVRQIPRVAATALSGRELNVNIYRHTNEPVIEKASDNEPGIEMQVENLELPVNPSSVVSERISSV
Sequence of human 5-HT2B (P41595 whole entry): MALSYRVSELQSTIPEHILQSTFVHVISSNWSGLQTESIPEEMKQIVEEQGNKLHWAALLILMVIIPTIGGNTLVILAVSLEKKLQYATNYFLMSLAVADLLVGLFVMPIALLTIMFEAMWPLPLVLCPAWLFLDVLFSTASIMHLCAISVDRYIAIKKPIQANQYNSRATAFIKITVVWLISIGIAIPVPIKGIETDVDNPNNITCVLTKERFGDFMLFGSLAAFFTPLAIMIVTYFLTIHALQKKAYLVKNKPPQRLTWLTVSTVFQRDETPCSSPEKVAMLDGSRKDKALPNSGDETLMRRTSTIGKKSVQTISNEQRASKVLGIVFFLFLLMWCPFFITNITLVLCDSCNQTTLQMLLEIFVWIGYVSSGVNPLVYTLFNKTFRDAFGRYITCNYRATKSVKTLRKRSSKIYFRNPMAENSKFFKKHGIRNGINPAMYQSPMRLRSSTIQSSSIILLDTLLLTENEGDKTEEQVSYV
Sequence of human 5-HT2A (P28223 whole entry): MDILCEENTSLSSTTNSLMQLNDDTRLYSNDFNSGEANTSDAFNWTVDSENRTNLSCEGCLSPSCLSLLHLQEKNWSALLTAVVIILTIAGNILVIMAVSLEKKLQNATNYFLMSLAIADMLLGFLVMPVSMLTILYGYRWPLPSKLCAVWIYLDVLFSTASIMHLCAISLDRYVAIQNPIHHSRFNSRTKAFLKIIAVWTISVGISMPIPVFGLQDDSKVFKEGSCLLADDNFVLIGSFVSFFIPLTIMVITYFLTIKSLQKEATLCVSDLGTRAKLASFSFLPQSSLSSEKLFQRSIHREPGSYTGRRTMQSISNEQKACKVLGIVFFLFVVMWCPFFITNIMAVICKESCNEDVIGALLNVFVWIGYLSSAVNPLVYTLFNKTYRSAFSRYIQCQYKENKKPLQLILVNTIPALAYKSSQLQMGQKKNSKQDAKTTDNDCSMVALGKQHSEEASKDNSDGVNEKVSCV
T1 sequence (P08183 whole entry): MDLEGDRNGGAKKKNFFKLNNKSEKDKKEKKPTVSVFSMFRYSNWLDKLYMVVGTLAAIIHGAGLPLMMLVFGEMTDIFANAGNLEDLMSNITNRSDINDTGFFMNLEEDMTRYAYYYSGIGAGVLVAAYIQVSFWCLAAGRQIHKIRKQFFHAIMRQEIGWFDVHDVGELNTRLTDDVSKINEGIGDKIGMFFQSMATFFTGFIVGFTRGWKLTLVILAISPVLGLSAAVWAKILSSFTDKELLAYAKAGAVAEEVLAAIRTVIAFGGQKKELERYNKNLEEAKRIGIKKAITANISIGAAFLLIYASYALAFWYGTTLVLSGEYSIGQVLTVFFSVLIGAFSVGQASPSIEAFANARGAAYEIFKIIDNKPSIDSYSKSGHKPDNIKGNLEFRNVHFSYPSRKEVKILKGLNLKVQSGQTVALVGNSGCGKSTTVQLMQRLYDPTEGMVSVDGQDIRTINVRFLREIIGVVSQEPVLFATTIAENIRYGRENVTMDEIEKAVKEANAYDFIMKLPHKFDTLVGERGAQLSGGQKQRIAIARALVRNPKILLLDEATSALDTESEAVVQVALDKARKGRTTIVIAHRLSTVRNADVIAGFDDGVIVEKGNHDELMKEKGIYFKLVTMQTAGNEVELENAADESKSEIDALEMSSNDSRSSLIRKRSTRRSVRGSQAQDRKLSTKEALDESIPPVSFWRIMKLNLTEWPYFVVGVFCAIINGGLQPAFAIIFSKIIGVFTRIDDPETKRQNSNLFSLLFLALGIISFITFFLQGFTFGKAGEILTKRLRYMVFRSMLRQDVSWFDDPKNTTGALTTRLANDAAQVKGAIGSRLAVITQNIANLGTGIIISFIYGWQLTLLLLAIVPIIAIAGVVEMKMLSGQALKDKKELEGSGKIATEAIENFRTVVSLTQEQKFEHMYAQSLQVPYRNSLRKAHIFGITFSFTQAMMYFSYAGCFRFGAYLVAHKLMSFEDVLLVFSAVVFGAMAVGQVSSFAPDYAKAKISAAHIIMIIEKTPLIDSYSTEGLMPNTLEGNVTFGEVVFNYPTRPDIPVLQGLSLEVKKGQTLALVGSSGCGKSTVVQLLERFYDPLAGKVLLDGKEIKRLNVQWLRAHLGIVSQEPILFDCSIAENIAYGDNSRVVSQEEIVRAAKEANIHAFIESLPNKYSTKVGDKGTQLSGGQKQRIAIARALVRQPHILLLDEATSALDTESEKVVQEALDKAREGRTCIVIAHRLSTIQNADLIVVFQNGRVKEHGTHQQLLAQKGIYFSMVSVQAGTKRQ

SMILES: COc1ccc2[nH]nc(CCN(C)C)c2c1 [Compound 6a]
- 5-HT2A % Max (human 5-HT2A): 10.7 ± 0.6%
- 5-HT2B % Max (human 5-HT2B): 48.0 ± 7.6%
- 5-HT2C % Max (human 5-HT2C): 32.1 ± 2.2%
- CLhep [1]: 12.1 (mL/min)/kg
- EC50 (5-HT2B): > 10 µM

SMILES: COc1ccc2[nH]nc(C3=CCCNC3)c2c1 [Compound 19f]
- 5-HT2A % Max (human 5-HT2A): 12.3 ± 1.8%
- 5-HT2B % Max (human 5-HT2B): 93.6%
- 5-HT2C % Max (human 5-HT2C): 59.8 ± 3.2%

SMILES: Nc1ccc2[nH]nc(C3=CCCNC3)c2c1 [Compound 19e]
- 5-HT2A % Max (human 5-HT2A): 40.4 ± 1.3%
- 5-HT2B % Max (human 5-HT2B): 96.1%
- 5-HT2C % Max (human 5-HT2C): 86.9%

SMILES: [2H]C([2H])(Cc1n[nH]c2ccc(OC)cc12)N(C)C [Compound 6b]
- 5-HT2A % Max (human 5-HT2A): 11.7 ± 0.6%
- 5-HT2B % Max (human 5-HT2B): 60.5%
- 5-HT2C % Max (human 5-HT2C): 32.3%
- CLhep [1]: 11.7 (mL/min)/kg

SMILES: CN(C)CCc1n[nH]c2ccc(O)cc12 [Compound 16]
- 5-HT2A % Max (human 5-HT2A): 26.2 ± 1.4%
- 5-HT2B % Max (human 5-HT2B): 53.7%
- 5-HT2C % Max (human 5-HT2C): 53.3%

SMILES: Brc1ccc2[nH]nc(C3=CCCNC3)c2c1 [Compound 19d]
- 5-HT2A % Max (human 5-HT2A): 41.4 ± 3.4%
- 5-HT2B % Max (human 5-HT2B): 82.8 ± 1.9%
- 5-HT2C % Max (human 5-HT2C): 93.9%
- CLhep [1]: 5.6 (mL/min)/kg
- CLhep [2]: 58 (mL/min)/kg
- PappA-B (P-gp [3]): 7.9 10^–6 cm/s
- CLp [4]: 34.2 (mL/min)/kg
- Kp at 0.25 h (in vivo; brain): 5.4
- Vd at 24 h (in vivo; plasma): 6.33 L/kg
- half-life at 24 h (in vivo; plasma): 2.8 h
- fraction unbound at 6 h, 5 µM (in vitro [5]): 0.12
- fraction unbound at 6 h, 5 µM (in vitro [6]): 0.13
- fraction unbound at 6 h, 5 µM (in vitro [7]): 0.12
- efflux ratio at 5 µM (P-gp [8]): 1.3

SMILES: Cn1nc(C2=CCCNC2)c2ccccc21 [Compound 19b]
- 5-HT2A % Max (human 5-HT2A): 42.2 ± 3.7%
- higher agonist potency for 5-HT2B and 5-HT2C relative to 5-HT2A (human 5-HT2A): approximately 10 fold
- 5-HT2B % Max (human 5-HT2B): 48.0 ± 4.8%
- 5-HT2C % Max (human 5-HT2C): 50.3 ± 2.4%

SMILES: C1=C(c2n[nH]c3ccccc23)CNCC1 [Compound 19a]
- 5-HT2A % Max (human 5-HT2A): 17.5 ± 3.2%
- higher agonist potency for 5-HT2B and 5-HT2C relative to 5-HT2A (human 5-HT2A): approximately 10 fold
- 5-HT2B % Max (human 5-HT2B): 83.8 ± 1.9%
- 5-HT2C % Max (human 5-HT2C): 67.7 ± 6.6%
